This passage reports GI50 and TGI results from PubChem BioAssay (NCI).

Some test systems named below: LOX IMVI melanoma; SF-539 CNS; HCC-2998 colon; MDA-MB-231 breast; MALME-3M melanoma; MCF7 breast; CAKI-1 renal; UACC-62 melanoma; 786-0 renal; HOP-92 NSCLC.
What all share (assay): NCI anticancer screen, dose series, 48 h

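Growth conditions: 96-well plates. Treatment: test compound, 48 hours, 5 concentrations. Analysis: linear interpolation between bracketing concentrations; unreached endpoints set to highest concentration. Here, GI50 denotes the concentration required for 50% inhibition of growth. TGI denotes the concentration required for complete inhibition of growth.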

For the compound `C(#Cc1ccccc1C#Cc1ccccn1)c1ccc(OCCCCCCOc2ccc(C#Cc3ccccc3C#Cc3ccccn3)cc2)cc1`, the GI50 is 0.229 µM in the test with LOX IMVI melanoma; 1.76 µM with SF-539 CNS; 6.83 µM with HCC-2998 colon; 2.47 µM in the test with MDA-MB-231 breast; 7.76 µM in the test on MALME-3M melanoma; 1.62 µM in the test with MCF7 breast. For the same compound, the GI50 in the test with CAKI-1 renal was 5.05 µM; with UACC-62 melanoma, 0.35 µM; in the test with 786-0 renal it was 5.55 µM; with HOP-92 NSCLC, 4.91 µM. Further, the TGI in the test on LOX IMVI melanoma was 5.71 µM; in the test with SF-539 CNS it was 7.63 µM; in the test on HCC-2998 colon it was 13.3 µM; in the test on MDA-MB-231 breast, 9.64 µM; in the test on MALME-3M melanoma, 16.3 µM; in the test with MCF7 breast, 8.29 µM. Also, the TGI in the test on CAKI-1 renal was determined as 12 µM; in the test with UACC-62 melanoma, 5.46 µM; in the test with 786-0 renal, 28.8 µM; with HOP-92 NSCLC, 12 µM.
Regarding `Cc1cc(Cl)ccc1Nc1nc(C(F)(F)F)ccc1C(=O)N/N=C/c1ccc(F)cc1`, the GI50 is 1.34 µM in the test on LOX IMVI melanoma; 1.96 µM with SF-539 CNS; 1.1 µM with HCC-2998 colon; 1.47 µM with MDA-MB-231 breast; 1.11 µM in the test with MALME-3M melanoma; 2.64 µM in the test with MCF7 breast. The GI50 is 1.82 µM in the test on CAKI-1 renal, 1.79 µM in the test on UACC-62 melanoma, 1.45 µM in the test on 786-0 renal and 1.75 µM in the test on HOP-92 NSCLC. Moreover, the TGI with LOX IMVI melanoma worked out at 10.6 µM; with SF-539 CNS, 5.67 µM; in the test on HCC-2998 colon, 4.54 µM; in the test on MDA-MB-231 breast, 5.94 µM; in the test with MALME-3M melanoma it was 4.7 µM; with MCF7 breast, 10.5 µM. The TGI with CAKI-1 renal was determined as 6.55 µM; in the test with UACC-62 melanoma, 3.82 µM; in the test on 786-0 renal, 5.93 µM; with HOP-92 NSCLC it was 6.14 µM.
